{
  "source": "ChEMBL document CHEMBL1201862",
  "about": "“PubChem BioAssay data set” (2004)",
  "key": {"[1]": {"target": "Serine/threonine-protein phosphatase PP1-alpha catalytic subunit (Homo sapiens, UniProt P62136)", "sequence (P62136 whole entry)": "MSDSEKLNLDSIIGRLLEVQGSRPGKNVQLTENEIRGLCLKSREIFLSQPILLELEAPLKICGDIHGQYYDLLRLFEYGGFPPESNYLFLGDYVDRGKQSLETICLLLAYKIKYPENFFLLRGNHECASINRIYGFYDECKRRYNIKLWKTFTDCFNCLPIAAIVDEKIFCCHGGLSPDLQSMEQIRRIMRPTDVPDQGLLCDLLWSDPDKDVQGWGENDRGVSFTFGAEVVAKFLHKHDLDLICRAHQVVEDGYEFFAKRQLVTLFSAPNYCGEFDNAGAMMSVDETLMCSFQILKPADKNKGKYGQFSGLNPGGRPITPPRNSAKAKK", "experiment": "inhibition of protein phosphatase 1 activity – biochemical, fluorescence, dose response (AID 2394)"}, "[2]": {"target": "T1, High affinity choline transporter 1 (Homo sapiens, UniProt Q9GZV3)", "T1 sequence (Q9GZV3 whole entry)": "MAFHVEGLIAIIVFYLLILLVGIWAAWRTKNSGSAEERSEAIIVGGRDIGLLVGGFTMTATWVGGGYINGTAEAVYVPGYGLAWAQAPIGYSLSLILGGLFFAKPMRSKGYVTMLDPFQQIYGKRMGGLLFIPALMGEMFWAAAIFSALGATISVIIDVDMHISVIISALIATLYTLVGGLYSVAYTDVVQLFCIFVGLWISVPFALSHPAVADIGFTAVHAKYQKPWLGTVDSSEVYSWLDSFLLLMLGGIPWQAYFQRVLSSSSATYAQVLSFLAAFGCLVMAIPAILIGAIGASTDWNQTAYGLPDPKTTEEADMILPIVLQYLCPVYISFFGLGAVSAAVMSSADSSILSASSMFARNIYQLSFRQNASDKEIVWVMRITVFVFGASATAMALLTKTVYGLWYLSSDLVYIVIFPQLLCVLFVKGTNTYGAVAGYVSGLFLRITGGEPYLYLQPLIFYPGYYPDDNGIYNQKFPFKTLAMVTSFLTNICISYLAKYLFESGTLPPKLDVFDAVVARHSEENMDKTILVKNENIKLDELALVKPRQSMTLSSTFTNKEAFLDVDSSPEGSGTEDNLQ", "experiment": "human choline transporter blockers, potency – cell-based, 5-point CRC, membrane potential dye, dose response (AID 504840)", "format": "functional"}, "Protein RecA": {"target": "T2, Protein RecA (Mycobacterium tuberculosis, UniProt P9WHJ3)", "T2 sequence (P9WHJ3 whole entry)": "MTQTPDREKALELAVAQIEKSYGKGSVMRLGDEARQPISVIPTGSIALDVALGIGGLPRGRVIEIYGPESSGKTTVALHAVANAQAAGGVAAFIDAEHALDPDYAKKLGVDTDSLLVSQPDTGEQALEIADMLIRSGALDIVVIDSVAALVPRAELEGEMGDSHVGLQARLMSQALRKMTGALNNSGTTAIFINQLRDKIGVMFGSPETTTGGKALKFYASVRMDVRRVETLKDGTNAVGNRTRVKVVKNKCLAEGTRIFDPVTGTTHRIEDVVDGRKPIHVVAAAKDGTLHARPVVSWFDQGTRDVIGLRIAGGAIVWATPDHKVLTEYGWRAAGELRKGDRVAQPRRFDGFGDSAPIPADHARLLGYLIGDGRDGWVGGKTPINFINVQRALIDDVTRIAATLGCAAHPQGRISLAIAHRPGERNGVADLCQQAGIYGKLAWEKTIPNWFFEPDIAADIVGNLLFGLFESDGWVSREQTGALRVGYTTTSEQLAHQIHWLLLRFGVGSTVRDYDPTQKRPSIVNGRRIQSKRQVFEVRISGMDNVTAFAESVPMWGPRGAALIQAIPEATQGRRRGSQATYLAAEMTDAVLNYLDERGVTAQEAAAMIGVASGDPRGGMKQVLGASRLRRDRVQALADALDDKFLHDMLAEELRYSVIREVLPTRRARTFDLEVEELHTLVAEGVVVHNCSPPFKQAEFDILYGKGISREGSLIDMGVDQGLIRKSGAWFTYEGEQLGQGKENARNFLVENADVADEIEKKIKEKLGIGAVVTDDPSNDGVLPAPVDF", "experiment": "Fluorescence Cell-Free Homogeneous Dose Retest to Identify Inhibitors of RecA-Intein Splicing Activity. [Related pubchem assays (depositor defined):AID2097, AID2223, AID489010, AID492950]", "format": "functional"}, "[3]": {"target": "T3, Replicative DNA helicase DnaB (Mycobacterium tuberculosis, UniProt P9WMR3)", "T3 sequence (P9WMR3 whole entry)": "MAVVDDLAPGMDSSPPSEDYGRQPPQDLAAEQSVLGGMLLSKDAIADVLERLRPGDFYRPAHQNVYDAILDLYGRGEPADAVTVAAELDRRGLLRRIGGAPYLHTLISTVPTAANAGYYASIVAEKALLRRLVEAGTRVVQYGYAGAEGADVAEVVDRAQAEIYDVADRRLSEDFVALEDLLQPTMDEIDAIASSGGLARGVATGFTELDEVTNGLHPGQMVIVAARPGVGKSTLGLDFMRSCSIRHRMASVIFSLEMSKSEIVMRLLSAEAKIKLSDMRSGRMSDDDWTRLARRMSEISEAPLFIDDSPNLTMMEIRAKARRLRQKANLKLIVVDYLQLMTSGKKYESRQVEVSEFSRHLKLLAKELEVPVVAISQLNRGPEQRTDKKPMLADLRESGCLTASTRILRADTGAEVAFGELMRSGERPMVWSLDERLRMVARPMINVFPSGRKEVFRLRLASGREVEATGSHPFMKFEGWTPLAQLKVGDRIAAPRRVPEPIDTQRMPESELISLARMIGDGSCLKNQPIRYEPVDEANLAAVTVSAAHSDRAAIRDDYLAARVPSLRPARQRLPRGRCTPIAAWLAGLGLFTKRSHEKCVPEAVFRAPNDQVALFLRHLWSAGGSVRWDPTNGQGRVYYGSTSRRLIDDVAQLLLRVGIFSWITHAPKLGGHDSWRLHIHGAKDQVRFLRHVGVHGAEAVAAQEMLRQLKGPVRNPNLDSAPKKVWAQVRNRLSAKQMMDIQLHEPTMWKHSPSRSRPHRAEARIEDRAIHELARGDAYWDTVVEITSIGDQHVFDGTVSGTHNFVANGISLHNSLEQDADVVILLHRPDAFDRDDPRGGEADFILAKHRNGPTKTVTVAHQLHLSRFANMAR", "experiment": "DnaB intein splicing inhibitors, dose response, biochemical, cell-free fluorescence (AID 449749)", "format": "functional"}, "Genome polyprotein": {"target": "Genome polyprotein (dengue virus type 2, UniProt P29990)", "sequence (P29990 2492-3391 limits assumed)": "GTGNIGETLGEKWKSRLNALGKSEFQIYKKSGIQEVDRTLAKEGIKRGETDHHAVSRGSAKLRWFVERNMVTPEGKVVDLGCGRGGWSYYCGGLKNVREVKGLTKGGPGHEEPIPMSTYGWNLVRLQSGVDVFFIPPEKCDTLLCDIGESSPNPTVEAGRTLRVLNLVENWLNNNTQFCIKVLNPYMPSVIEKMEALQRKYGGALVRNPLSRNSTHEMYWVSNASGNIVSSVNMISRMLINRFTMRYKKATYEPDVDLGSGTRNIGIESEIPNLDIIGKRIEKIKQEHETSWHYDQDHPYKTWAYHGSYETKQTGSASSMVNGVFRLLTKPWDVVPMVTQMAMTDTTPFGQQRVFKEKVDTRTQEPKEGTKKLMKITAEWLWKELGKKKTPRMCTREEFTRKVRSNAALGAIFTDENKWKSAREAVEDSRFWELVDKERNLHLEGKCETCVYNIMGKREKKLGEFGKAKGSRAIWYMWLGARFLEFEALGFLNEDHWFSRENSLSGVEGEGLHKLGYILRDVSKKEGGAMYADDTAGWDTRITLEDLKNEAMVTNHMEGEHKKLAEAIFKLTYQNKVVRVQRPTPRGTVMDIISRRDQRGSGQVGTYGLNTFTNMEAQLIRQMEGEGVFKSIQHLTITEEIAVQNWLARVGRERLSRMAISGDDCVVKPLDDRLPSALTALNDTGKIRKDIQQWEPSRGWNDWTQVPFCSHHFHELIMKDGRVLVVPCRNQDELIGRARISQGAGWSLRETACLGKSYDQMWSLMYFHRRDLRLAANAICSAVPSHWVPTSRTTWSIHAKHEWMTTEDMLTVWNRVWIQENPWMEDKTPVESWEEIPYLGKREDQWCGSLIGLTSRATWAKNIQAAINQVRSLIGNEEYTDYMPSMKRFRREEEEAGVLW", "experiment": "flavivirus cap methylation enzyme inhibition – biochemical, confirmation dose response, primary screen (AID 588689)", "format": "functional"}, "Fatty acid synthase [4]": {"target": "T4, Fatty acid synthase (Homo sapiens, UniProt P49327)", "T4 sequence (P49327 whole entry)": "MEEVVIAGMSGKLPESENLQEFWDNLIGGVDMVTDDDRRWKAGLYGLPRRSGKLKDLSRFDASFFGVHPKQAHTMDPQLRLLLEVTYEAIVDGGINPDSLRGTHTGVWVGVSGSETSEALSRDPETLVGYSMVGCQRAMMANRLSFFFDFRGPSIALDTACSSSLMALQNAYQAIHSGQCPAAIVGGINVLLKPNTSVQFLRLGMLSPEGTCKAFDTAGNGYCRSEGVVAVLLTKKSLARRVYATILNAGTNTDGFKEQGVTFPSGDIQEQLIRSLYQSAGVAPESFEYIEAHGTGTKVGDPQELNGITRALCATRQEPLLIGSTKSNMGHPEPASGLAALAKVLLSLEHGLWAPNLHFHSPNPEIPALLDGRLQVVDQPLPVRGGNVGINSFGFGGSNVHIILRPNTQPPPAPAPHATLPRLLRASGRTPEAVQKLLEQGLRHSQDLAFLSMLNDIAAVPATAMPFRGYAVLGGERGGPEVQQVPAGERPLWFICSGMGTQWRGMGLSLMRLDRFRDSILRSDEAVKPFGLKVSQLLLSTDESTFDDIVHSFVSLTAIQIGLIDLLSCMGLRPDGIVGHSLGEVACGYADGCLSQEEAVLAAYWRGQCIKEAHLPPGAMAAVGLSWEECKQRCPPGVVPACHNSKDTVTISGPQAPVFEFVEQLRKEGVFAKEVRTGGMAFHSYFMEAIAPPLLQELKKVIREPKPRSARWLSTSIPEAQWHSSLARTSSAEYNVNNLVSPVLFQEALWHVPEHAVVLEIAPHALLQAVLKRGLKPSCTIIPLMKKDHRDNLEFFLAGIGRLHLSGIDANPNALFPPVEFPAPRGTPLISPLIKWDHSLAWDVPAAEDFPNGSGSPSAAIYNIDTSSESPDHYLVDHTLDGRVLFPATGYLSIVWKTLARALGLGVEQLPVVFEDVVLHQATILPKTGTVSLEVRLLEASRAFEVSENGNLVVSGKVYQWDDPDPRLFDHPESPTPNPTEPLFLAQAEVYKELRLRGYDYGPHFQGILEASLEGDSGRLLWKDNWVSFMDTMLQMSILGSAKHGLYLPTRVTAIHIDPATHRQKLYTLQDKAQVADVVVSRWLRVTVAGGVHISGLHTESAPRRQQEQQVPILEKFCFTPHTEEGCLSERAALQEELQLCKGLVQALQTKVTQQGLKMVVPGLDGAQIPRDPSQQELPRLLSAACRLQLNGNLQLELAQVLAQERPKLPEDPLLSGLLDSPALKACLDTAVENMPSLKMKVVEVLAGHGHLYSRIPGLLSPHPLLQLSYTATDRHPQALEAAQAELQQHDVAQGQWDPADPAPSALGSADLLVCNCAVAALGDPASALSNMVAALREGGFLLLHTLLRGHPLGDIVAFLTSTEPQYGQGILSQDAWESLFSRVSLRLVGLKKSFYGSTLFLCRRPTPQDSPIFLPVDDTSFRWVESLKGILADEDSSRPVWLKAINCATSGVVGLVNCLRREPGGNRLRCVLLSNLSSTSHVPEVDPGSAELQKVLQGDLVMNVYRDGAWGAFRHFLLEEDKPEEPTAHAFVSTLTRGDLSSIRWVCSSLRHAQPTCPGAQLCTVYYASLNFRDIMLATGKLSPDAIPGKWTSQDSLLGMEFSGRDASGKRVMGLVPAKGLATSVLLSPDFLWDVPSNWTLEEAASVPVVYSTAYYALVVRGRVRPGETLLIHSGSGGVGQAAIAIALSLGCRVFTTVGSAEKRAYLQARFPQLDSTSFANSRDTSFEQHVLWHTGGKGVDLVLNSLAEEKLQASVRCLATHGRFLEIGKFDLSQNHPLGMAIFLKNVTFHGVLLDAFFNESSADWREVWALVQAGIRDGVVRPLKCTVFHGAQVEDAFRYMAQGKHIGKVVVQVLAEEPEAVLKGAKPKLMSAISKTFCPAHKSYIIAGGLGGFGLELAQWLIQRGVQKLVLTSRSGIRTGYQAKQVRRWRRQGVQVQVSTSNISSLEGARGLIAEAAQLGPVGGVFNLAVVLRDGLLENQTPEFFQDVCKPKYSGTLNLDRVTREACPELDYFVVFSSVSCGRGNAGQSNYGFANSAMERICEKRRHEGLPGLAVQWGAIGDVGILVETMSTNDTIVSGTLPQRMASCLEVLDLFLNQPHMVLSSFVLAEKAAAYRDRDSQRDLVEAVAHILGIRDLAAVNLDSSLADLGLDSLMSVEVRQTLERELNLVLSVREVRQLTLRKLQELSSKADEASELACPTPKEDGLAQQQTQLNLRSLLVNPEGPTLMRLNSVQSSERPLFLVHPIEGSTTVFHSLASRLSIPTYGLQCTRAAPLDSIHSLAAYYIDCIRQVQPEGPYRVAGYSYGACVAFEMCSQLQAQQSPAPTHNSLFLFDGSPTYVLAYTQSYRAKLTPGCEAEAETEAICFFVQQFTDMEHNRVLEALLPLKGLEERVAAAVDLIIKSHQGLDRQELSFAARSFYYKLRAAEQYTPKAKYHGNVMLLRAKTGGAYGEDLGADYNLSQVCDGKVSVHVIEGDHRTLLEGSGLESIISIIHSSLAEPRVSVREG", "experiment": "inhibition of human FAS-TE enzyme activity – biochemical, kinetic fluorescence intensity, dose response (AID 624326);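 further: rate of fluorescence rise from hydrolysis of a fluorogenic O-methyl fluorescein ester substrate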", "format": "functional"}, "Fatty acid synthase [5]": {"target": "T4, Fatty acid synthase", "experiment": "inhibition of human FAS-TE enzyme activity – biochemical, endpoint fluorescence intensity, uHTS hits, dose response (AID 624327);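 further: fluorescence from hydrolysis of an O-methyl fluorescein acyl ester substrate by the enzyme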", "format": "functional"}, "[6]": {"target": "T5, Serine/threonine-protein phosphatase (Homo sapiens, UniProt Q9BPW0)", "T5 sequence (Q9BPW0 whole entry)": "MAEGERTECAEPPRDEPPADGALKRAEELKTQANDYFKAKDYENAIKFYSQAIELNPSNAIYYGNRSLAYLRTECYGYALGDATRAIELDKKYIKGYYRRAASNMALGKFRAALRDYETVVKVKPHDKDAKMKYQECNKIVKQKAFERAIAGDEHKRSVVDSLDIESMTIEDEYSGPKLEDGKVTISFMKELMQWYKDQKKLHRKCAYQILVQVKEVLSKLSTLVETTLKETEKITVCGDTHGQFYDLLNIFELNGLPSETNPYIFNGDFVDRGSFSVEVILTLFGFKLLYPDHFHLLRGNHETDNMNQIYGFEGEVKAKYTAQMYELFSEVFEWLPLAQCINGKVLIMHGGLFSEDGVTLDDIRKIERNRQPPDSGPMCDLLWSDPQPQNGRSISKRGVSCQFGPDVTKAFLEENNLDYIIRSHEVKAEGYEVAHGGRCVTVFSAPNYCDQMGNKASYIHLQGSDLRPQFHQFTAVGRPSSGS", "experiment": "inhibition of protein phosphatase 5 activity – biochemical, fluorescence, dose response (AID 2395)"}, "[7]": {"target": "T1, High affinity choline transporter 1", "experiment": "human choline transporter blockers, potency – cell-based, 10-point CRC, membrane potential dye, dose response (AID 588401);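 further: membrane potential dye fluorescence of choline-evoked depolarization via CHT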", "format": "functional"}},
  "note": "The source made the active and inactive calls.",
  "data": [
    {"smiles": "Cc1[nH]n(-c2ccccc2)c(=O)c1C(c1ccc([N+](=O)[O-])cc1)c1c(C)[nH]n(-c2ccccc2)c1=O", "values": [
      {"measurement": "IC50", "setting": "[1]", "result": "29.9 µM (not active)"},
      {"measurement": "IC50", "setting": "[2]", "result": "10.3 µM (active)"},
      {"measurement": "EC50", "setting": "Protein RecA", "result": "0.39 µM (active)"},
      {"measurement": "AC50", "setting": "[3]", "result": "1.24 µM (active)"},
      {"measurement": "IC50", "setting": "Genome polyprotein", "result": "33.2 µM (active)"},
      {"measurement": "IC50", "setting": "Fatty acid synthase [4]", "result": "5.6 µM (active)"},
      {"measurement": "IC50", "setting": "Fatty acid synthase [5]", "result": "3.19 µM (active)"},
      {"measurement": "IC50", "setting": "[6]", "result": "9.57 µM (active)"},
      {"measurement": "IC50", "setting": "[7]", "result": "2.82 µM (active)"}
    ]}
  ]
}
